Measured values published in patent US10131653B2, “Heterocyclic compound” (TAKEDA PHARMACEUTICAL COMPANY LIMITED, priority 2015, dated 2018).

What was measured:
Orexin-A-induced rats = assay: Locomotor activity test using Orexin-A-induced rats; assay type: in vivo; details: rat
Description: The male SD rats described in Experimental Example 2 were used.
From the day before drug administration, the animals were acclimated to a locomotor activity measurement apparatus (Muromachi Kikai Co., Ltd.). Solvent (0.5% (w/v) methyl cellulose solution) and the compound (30 mg/kg) of Example 1 or the compound (30 mg/kg) of Example 2 were subcutaneously administered 30 min before administration of saline or Orexin-A (1 nmol). The locomotor activity was quantified for 30 min to 90 min after the cerebral ventricular administration of Orexin-A. A comparison with saline+solvent administration group was tested by Student's t-test (*p≤0.05). A comparison with Orexin-A+solvent administration group was tested by Dunnett's test (#p≤0.05).

human OX1 receptor = target: T1, human OX1 receptor (Homo sapiens, UniProt O43613); assay: Measurement of orexin receptor antagonistic activity (calcium fluorescence, FLIPRtetra); assay type: cell-based; details: CHO, 10 μM test compound; CHO cells expressing human OX1 receptor; OX-A 1 nM; read-out: Human Orexin1 receptor inhibition (at 10 μM)
T1 construct: expressed in transfected cells; host or cells: CHO cells
T1 sequence (O43613 1-425): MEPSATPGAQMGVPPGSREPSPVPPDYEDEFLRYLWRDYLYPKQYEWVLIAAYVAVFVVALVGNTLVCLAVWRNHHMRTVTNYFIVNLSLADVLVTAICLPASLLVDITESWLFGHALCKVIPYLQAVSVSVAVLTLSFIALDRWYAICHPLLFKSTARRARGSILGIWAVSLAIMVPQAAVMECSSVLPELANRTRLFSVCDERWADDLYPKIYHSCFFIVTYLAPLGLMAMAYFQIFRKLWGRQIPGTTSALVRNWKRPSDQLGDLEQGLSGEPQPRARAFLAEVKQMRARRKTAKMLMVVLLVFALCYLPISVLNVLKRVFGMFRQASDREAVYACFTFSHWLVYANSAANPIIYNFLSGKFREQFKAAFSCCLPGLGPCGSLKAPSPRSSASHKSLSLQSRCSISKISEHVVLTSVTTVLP
Summary of the method: (§1)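 CHO cells expressing human OX1 or OX2 receptor, cultured one day. Compound in HBSS/20 mM HEPES/0.1% BSA added, then orexin-A at 1 nM final (OX1) or 0.3 nM final (OX2); calcium fluorescence by FLIPRtetra every 1 s for 2 min.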

human OX2 receptor = target: T2, human OX2 receptor (Homo sapiens, UniProt O43614); assay: as above; assay type: cell-based; details: CHO, 10 μM test compound; CHO cells expressing human OX2 receptor; OX-A 0.3 nM; read-out: Human Orexin2 receptor inhibition (at 10 μM)
T2 construct: expressed in transfected cells; host or cells: CHO cells
T2 sequence (O43614 1-444): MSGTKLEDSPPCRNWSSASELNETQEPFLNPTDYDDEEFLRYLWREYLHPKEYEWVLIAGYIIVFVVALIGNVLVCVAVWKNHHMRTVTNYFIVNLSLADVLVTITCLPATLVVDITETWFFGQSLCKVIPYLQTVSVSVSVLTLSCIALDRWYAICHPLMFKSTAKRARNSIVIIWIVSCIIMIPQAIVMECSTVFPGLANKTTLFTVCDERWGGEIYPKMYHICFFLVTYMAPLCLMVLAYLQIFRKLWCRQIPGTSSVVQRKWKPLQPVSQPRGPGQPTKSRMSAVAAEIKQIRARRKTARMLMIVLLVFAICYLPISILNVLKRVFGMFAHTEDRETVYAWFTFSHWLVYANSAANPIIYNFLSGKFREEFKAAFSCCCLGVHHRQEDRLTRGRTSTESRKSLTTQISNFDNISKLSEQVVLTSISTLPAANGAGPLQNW
Summary of the method: as §1

[1] = Measurement of solubility; assay type: physicochemical; details: aqueous buffer, thermodynamic from solid; Britton-Robinson's Buffer pH 3, 37° C., shaking 2 hr; crystals from n-heptane suspension
Description: n-Heptane was added to the compounds of Examples 1, 2 and 102 at 40 mg/mL, respectively, and the mixtures were continued to be stirred at room temperature in a suspended state. After 3 to 7 days, the mixtures were filtered, and the obtained crystals as a sample were subjected to powder X-ray diffraction measurement (measurement condition: mentioned above) and solubility measurement.

| SMILES | inhibition at 10 µM (human OX1 receptor) [%] | inhibition at 10 µM (human OX2 receptor) [%] | solubility at 2 h [1] [µg/mL] | Locomotor activity increased by cerebral ventricular administration of Orexin-A (Orexin-A-induced rats; 30 mg/kg subcutaneous) | Locomotor activity (Counts/90 min) (Orexin-A-induced rats; 30 mg/kg subcutaneous 30 min before Orexin-A (1 nmol) cerebral ventricular administration, mean) |
| --- | --- | --- | --- | --- | --- |
| Cc1cc(N2CCN(C(=O)c3cc(F)ccc3-n3nccn3)C[C@H](C)O2)nc(C)n1 [Example 1, ((7S)-2-(2,6-dimethylpyrimidin-4-yl)-7-methyl-1,2,5-oxadiazepan-5-yl)(5-fluoro-2-(2H-1,2,3-triazol-2-yl)phenyl)methanone] | 47 | 98 | ≥ 5000 | significantly decreased | 3528 |
| Cc1nc(N2CCN(C(=O)c3ccccc3-c3ncccn3)[C@H](C)CO2)cc(C(F)(F)F)n1 [Example 214, ((6R)-6-methyl-2-(2-methyl-6-(trifluoromethyl)pyrimidin-4-yl)-1,2,5-oxadiazepan-5-yl)(2-(pyrimidin-2-yl)phenyl)methanone] | 55 | 103 | – | – | – |
| Cc1ncc(Cl)c(N2CCN(C(=O)c3cc(Cl)ccc3-n3nccn3)[C@H](C)CO2)n1 [Example 215, ((6R)-2-(5-chloro-2-methylpyrimidin-4-yl)-6-methyl-1,2,5-oxadiazepan-5-yl)(5-chloro-2-(2H-1,2,3-triazol-2-yl)phenyl)methanone] | 40 | 102 | – | – | – |
| Cc1nccc(N2CCN(C(=O)c3cc(Cl)ccc3-c3ncccn3)C[C@H](C)O2)n1 [Example 219, (5-chloro-2-(pyrimidin-2-yl)phenyl)((7S)-7-methyl-2-(2-methylpyrimidin-4-yl)-1,2,5-oxadiazepan-5-yl)methanone] | 72 | 100 | – | – | – |
| Cc1cc(N2CCN(C(=O)c3cccc(F)c3-c3ncccn3)C[C@H](C)O2)nc(C)n1 [Example 220, ((7S)-2-(2,6-dimethylpyrimidin-4-yl)-7-methyl-1,2,5-oxadiazepan-5-yl)(3-fluoro-2-(pyrimidin-2-yl)phenyl)methanone] | 15 | 101 | – | – | – |
| Cc1nccc(N2CCN(C(=O)c3cc(Cl)ccc3-c3ncccn3)[C@H](C)CO2)n1 [Example 229, (5-chloro-2-(pyrimidin-2-yl)phenyl)((6R)-6-methyl-2-(2-methylpyrimidin-4-yl)-1,2,5-oxadiazepan-5-yl)methanone] | 40 | 101 | – | – | – |
| Cc1ncc(Cl)c(N2CCN(C(=O)c3cc(Cl)ccc3-c3ncccn3)[C@H](C)CO2)n1 [Example 230, ((6R)-2-(5-chloro-2-methylpyrimidin-4-yl)-6-methyl-1,2,5-oxadiazepan-5-yl)(5-chloro-2-(pyrimidin-2-yl)phenyl)methanone] | 66 | 103 | – | – | – |
| Cc1cc(N2CCN(C(=O)c3ccccc3-c3noc(C)n3)C[C@H](C)O2)nc(C)n1 [Example 232, ((7S)-2-(2,6-dimethylpyrimidin-4-yl)-7-methyl-1,2,5-oxadiazepan-5-yl)(2-(5-methyl-1,2,4-oxadiazol-3-yl)phenyl)methanone] | 55 | 102 | – | – | – |
| COC(=O)c1ccccc1C(=O)N1CCN(c2cc(C)nc(C)n2)O[C@@H](C)C1 [Example 233, methyl 2-(((7S)-2-(2,6-dimethylpyrimidin-4-yl)-7-methyl-1,2,5-oxadiazepan-5-yl)carbonyl)benzoate] | 17 | 87 | – | – | – |

Now from value to molecule, other results behind:

| inhibition at 10 µM (human OX1 receptor) [%] | inhibition at 10 µM (human OX2 receptor) [%] | solubility at 2 h [1] [µg/mL] | SMILES | Locomotor activity increased by cerebral ventricular administration of Orexin-A (Orexin-A-induced rats; 30 mg/kg subcutaneous) | Locomotor activity (Counts/90 min) (Orexin-A-induced rats; 30 mg/kg subcutaneous 30 min before Orexin-A (1 nmol) cerebral ventricular administration, mean) |
| --- | --- | --- | --- | --- | --- |
| 59 | 101 | – | Cc1cc(N2CCN(C(=O)c3c(C)cccc3-c3ncccn3)CCO2)nc(C)n1 [Example 216, (2-(2,6-dimethylpyrimidin-4-yl)-1,2,5-oxadiazepan-5-yl)(2-methyl-6-(pyrimidin-2-yl)phenyl)methanone] | – | – |
| 50 | 101 | – | Cc1ccc(C(=O)N2CCN(c3cc(C)nc(C)n3)O[C@@H](C)C2)c(-c2ncccn2)c1 [Example 217, ((7S)-2-(2,6-dimethylpyrimidin-4-yl)-7-methyl-1,2,5-oxadiazepan-5-yl)(4-methyl-2-(pyrimidin-2-yl)phenyl)methanone] | – | – |
| 91 | 101 | – | Cc1cc(N2CCN(C(=O)c3ccc(F)cc3-c3ncccn3)C[C@H](C)O2)nc(C)n1 [Example 218, ((7S)-2-(2,6-dimethylpyrimidin-4-yl)-7-methyl-1,2,5-oxadiazepan-5-yl)(4-fluoro-2-(pyrimidin-2-yl)phenyl)methanone] | – | – |
| 51 | 102 | – | Cc1cc(N2CCN(C(=O)c3cc(Cl)ccc3-c3ncc(F)cn3)[C@H](C)CO2)nc(C)n1 [Example 221, (5-chloro-2-(5-fluoropyrimidin-2-yl)phenyl)((6R)-2-(2,6-dimethylpyrimidin-4-yl)-6-methyl-1,2,5-oxadiazepan-5-yl)methanone] | – | – |
| 32 | 99 | – | Cc1cc(N2CCN(C(=O)c3ccccc3-c3ncc(F)cn3)CCO2)nc(C)n1 [Example 222, (2-(2,6-dimethylpyrimidin-4-yl)-1,2,5-oxadiazepan-5-yl)(2-(5-fluoropyrimidin-2-yl)phenyl)methanone] | – | – |
| 17 | 101 | – | Cc1cc(N2CCN(C(=O)c3cc(F)c(F)cc3-c3ncc(F)cn3)CCO2)nc(C)n1 [Example 223, (4,5-difluoro-2-(5-fluoropyrimidin-2-yl)phenyl)(2-(2,6-dimethylpyrimidin-4-yl)-1,2,5-oxadiazepan-5-yl)methanone] | – | – |
| 53 | 100 | – | Cc1cc(N2CCN(C(=O)c3cc(Cl)ccc3-c3ncc(F)cn3)CCO2)nc(C)n1 [Example 224, (5-chloro-2-(5-fluoropyrimidin-2-yl)phenyl)(2-(2,6-dimethylpyrimidin-4-yl)-1,2,5-oxadiazepan-5-yl)methanone] | – | – |
| 74 | 103 | – | Cc1nc(N2CCN(C(=O)c3cc(Cl)ccc3-c3ncccn3)CCO2)cc(C(F)(F)F)n1 [Example 225, (5-chloro-2-(pyrimidin-2-yl)phenyl)(2-(2-methyl-6-(trifluoromethyl)pyrimidin-4-yl)-1,2,5-oxadiazepan-5-yl)methanone] | – | – |
| 80 | 101 | – | Cc1cc(N2CCN(C(=O)c3cc(Cl)ccc3-c3ncccn3)CCO2)nc(C)n1 [Example 226, (5-chloro-2-(pyrimidin-2-yl)phenyl)(2-(2,6-dimethylpyrimidin-4-yl)-1,2,5-oxadiazepan-5-yl)methanone] | – | – |
| 78 | 97 | – | Cc1nc(N2CCN(C(=O)c3cc(F)c(F)cc3-c3ncccn3)C[C@H](C)O2)cc(C(F)(F)F)n1 [Example 227, (4,5-difluoro-2-(pyrimidin-2-yl)phenyl)((7S)-7-methyl-2-(2-methyl-6-(trifluoromethyl)pyrimidin-4-yl)-1,2,5-oxadiazepan-5-yl)methanone] | – | – |
| 36 | 99 | – | Cc1cc(N2CCN(C(=O)c3cc(F)c(F)cc3-c3ncccn3)CCO2)nc(C)n1 [Example 228, (4,5-difluoro-2-(pyrimidin-2-yl)phenyl)(2-(2,6-dimethylpyrimidin-4-yl)-1,2,5-oxadiazepan-5-yl)methanone] | – | – |
| 38 | 103 | – | Cc1cc(N2CCN(C(=O)c3cc(F)c(F)cc3-c3ncccn3)[C@H](C)CO2)nc(C)n1 [Example 231, (4,5-difluoro-2-(pyrimidin-2-yl)phenyl)((6R)-2-(2,6-dimethylpyrimidin-4-yl)-6-methyl-1,2,5-oxadiazepan-5-yl)methanone] | – | – |
